Assay results published in patent US9526717B2, “Composition for treating immune diseases containing daurinol compound as active ingredient” (THE CATHOLIC UNIVERSITY OF KOREA INDUSTRY-ACADEMIC …, priority 2013, dated 2016).

Columns and labels:
[1] = system: mouse model with collagen induced arthritis (CIA); assay: Measurement of IgG, IgG1 and IgG2a in the serum of CIA mice by sandwich ELISA; assay type: in vivo
[2] = system: animal model with collagen induced arthritis (CIA); assay: Histological examination of joints of CIA animals; assay type: in vivo, mouse; conditions: injected intravenously, three weeks after, H&E, Toluidine blue, Safranin O
[3] = system: bone marrow macrophages (BMM); assay: Inhibitory effect on the differentiation of osteoclasts (TRAP+ multinucleate cells); assay type: cell-based, mouse; conditions: RANKL 50 ng/mL, M-CSF 30 ng/mL, 4 days
Description: ICR mice (6 to 9 week-old male) were subjected to cervical dislocation and disinfected with 70% ethanol. The skin in the tibia area was cut off and the muscles attached thereto were detached. The distal center of tibia was cut off and tibia was ablated by dislocating patella. Both ends of the bone were slightly cut off and a 25G injection needle was indwelled therein on one end and α-MEM was flowed thereon and bone marrow cells were thereby collected into a test tube. After centrifugation, the resultant was suspended in α-MEM and red blood cells were removed by adding two volumes of Gey's solution. After centrifugation, the resultant was resuspended in α-MEM including 10% FBS and cultured to be used.
The cultured bone marrow cells were cultured overnight with macrophage colony stimulating factor (“M-CSF”, hereinafter) (10 ng/mL), and the suspension cells were cultured further with M-CSF (30 ng/mL) for 3 days, and thereby bone marrow macrophages (“BMM”) were formed. The thus-formed BMM was collected and cultured in 1×10^5 cells/well in the presence of receptor activator of NF-κB ligand (RANKL) (50 ng/mL), which is an osteoclast differentiation factor, and M-CSF (30 ng/mL) for 4 days. […] The resultant was observed under a microscope and TRAP+ cells having three or more nuclei were determined as multinucleate osteoclasts.

[4] = system: phospho STAT3 (p705, p′727); assay: Western blot of phospho STAT3 in CD4+T cells; assay type: cell-based; conditions: CD4+T cells of normal mouse, daurinol 5 μM, anti-CD3 0.5 μg/mL, 3 days
Protocol: (§1) For the observation of changes in intracellular cell signaling factors treated with daurinol, a western blot analysis was performed. For this purpose, CD4+T cells were isolated from a normal mouse, treated with daurinol (5 μM) in a condition already treated with anti-CD3 antibodies (0.5 μg/mL), cultured for 3 days, and the cells were dissolved and proteins were extracted therefrom. Then, the extracted proteins were subjected to SDS-PAGE electrophoresis, and the proteins were electrically transferred onto a nitrocellulose membrane, subjected to a blocking reaction with 5% skim milk for 1 hour, reacted by attaching primary antibodies to STAT3, STAT3p705, STAT3p727, and phospho m-TOR thereto, reacting again by attaching secondary antibodies to the same, and sensitized onto a Kodak X-ray using enhanced chemilunimoecence (ECL), and thereby the protein expression levels of the genes were analyzed.

phospho m-TOR = assay: Western blot of phospho m-TOR in CD4+T cells; assay type: cell-based; conditions: CD4+T cells of normal mouse, daurinol 5 μM, anti-CD3 0.5 μg/mL, 3 days
Protocol: as §1

CD4+ T cells = assay: Inhibition of T cell proliferation in allogenic reaction in vitro; assay type: cell-based, mouse; conditions: daurinol 0.5, 2, 10 and 20 μM
Protocol: (§2) For the confirmation of the effect of the daurinol compound on the inhibition of T cell proliferation and the expression amount of IL-17, the CD4+ T cells (2×10^5 cells) of a normal recipient (Balb/c, responder), and the T cell-removed splenocytes (2×10^5 cells) derived from a recipient (homogenic) or the splenocytes (2×10^5 cells) derived from a donor (C57BL/6, stimulator, allogenic) exposed to irradiation were added to each well of a 96-well round bottom plate, mixed, and cultured in vitro. In particular, the T cell proliferation and the secretion of IL-17 when an allogenic reaction was untreated with daurinol or treated with daurinol at 0.5 μM, 2 μM, 10 μM, and 20 μM, respectively, were observed.

[5] = system: regulatory T lymphocytes (Treg); assay: Regulatory T cells (Treg) by flow cytometer in allogenic reaction; assay type: cell-based, mouse; conditions: control not treated 7.27%
Protocol: as §2
In this regard, for the confirmation of the effect of the daurinol compound according to the present invention on the activity of regulatory T lymphocytes (Treg), the present inventors analyzed the T cells isolated in Example <4-2> by a flow cytometer. That is, the T cells isolated in Example <4-2> were collected, washed with the FACs buffer, and reacted at 4° C. for the blocking of nonspecific binding for 5 minutes, and washed with the FACs buffer. […] Upon staining of the cells, the cells were washed with buffer and analyzed using the fluorescent-activated cell sorter (FACs).

[6] = system: mouse with induced inflammatory bowel disease (IBD); assay: Inflammatory cytokines in the serum of IBD animal model (ELISA); assay type: in vivo; conditions: IBD mice treated with daurinol
Description: For the confirmation of the effect of the daurinol compound of the present invention on the treatment of inflammatory bowel disease, the present inventors first constructed an animal model with induced inflammatory bowel disease. For the experimental model, C57BL/6(H-2kb) mice were used. For the construction of an animal model with induced inflammatory bowel disease, the mice were fed with 3.5% dextran sulfate sodium (DSS) and water for a week, thereby preparing an animal model with induced inflammatory bowel disease.
The present inventors divided the experimental animals into a normal control group, a group of an animal model with induced inflammatory bowel disease, and a group of an animal model with induced inflammatory bowel disease treated with daurinol or a TNF-α inhibitor, and the group treated with daurinol was administered orally and intrarectally with daurinol (20 mg/kg) from the 4th day after the induction with the disease.
Sera were isolated from a mouse with induced inflammatory bowel disease (IBD), and mice treated with daurinol and TNF-α inhibitor, respectively. The levels of IL-17, IFNγ, IL-6, and the like, which are inflammatory cytokines, in the isolated sera were measured by ELISA assay.

[7] = arthritis animals, daurinol administration

COc1cc2c(-c3ccc4c(c3)OCO4)c3c(cc2cc1O)COC3=O [daurinol]
expression of IgG in the serum ([1]; CIA mouse, three weeks after daurinol injection, 20 mg/kg i.v.): effectively reduced | IgG1 in the serum [1, 7]: significant decrease | IgG2a in the serum [1, 7]: significant decrease | degree of destruction of joints and cartilage [2]: not exhibited to be severe | differentiation of osteoclasts reduced by (number of TRAP+ multinucleate cells) ([3]; daurinol 2 μM): ≥ 60% | differentiation of osteoclasts (number of TRAP+ multinucleate cells) ([3]; daurinol 10 μM): no differentiation of osteoclasts was observed | expression of phospho STAT3 (p705, p′727) [4]: significant decrease | expression of phospho m-TOR (phospho m-TOR): significant decrease | T cell proliferation (CD4+ T cells): inhibited T cell proliferation in a dose-dependent manner | Treg cells ([5]; daurinol 1 μM): 9.18% | Treg cells ([5]; daurinol 5 μM): 16.6% | level of IFNγ in serum (ELISA) [6]: significantly inhibits | level of IL-6 in serum (ELISA) [6]: significantly inhibits | level of IL-17 in serum (ELISA) [6]: significantly inhibits
